Measurements reported in the supplement of paper PMC10307832.

Key:
Experiment in all cases: relative viability (nuclei count vs DMSO), 5 days (fraction); higher = more cells survive
NCI-H460 = system: NCI-H460
Outline: (§1)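 After 5 days of treatment, lung cancer cells in 1536-well plates were fixed and stained in a single step (final 0.05% Triton X-100, 1% formaldehyde, 1 ug/ml Hoechst) and their nuclei counted on 4× images. Treatment had been applied by pin tool the day after seeding as one drug alone or as a fixed anchor-drug dose with five library-drug doses (not always all listed) in √10 steps. Relative viability is the nuclei count of treated wells divided by that of vehicle wells, and values are medians of duplicate plates.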

HCC-78 = system: HCC-78
Outline: as §1

NCI-H522 = system: NCI-H522
Outline: as §1

NCI-H2009 = system: NCI-H2009
Outline: as §1

NCI-H661 = system: NCI-H661
Outline: as §1

NCI-H2342 = system: NCI-H2342
Outline: as §1

NCI-H1648 = system: NCI-H1648
Outline: as §1

NCI-H358 = system: NCI-H358
Outline: as §1

Molecule `CC(=O)O[C@@]12CO[C@@H]1C[C@H](O)[C@@]1(C)C(=O)[C@H](O)C3=C(C)[C@@H](OC(=O)[C@H](O)[C@@H](NC(=O)OC(C)(C)C)c4ccccc4)C[C@@](O)([C@@H](OC(=O)c4ccccc4)[C@H]21)C3(C)C` [Docetaxel] + CC(=O)c1c(C)c2cnc(Nc3ccc(N4CCNCC4)cn3)nc2n(C2CCCC2)c1=O [Palbociclib] (partner 0.5 µM) has a relative viability (NCI-H460; first compound 0.0002 µM) of 0.194, a relative viability (NCI-H460; first compound 0.000632 µM) of 0.0505 and a relative viability (NCI-H460; first compound 0.002 µM) of 0.0387. It also gave a relative viability (NCI-H460; first compound 0.006325 µM) of 0.01, a relative viability (NCI-H460; first compound 0.02 µM) of 0.0125 and a relative viability (HCC-78; first compound 0.0002 µM) of 0.388. For the same molecule, the relative viability (HCC-78; first compound 0.000632 µM) was 0.481, the relative viability (HCC-78; first compound 0.002 µM) was 0.435 and the relative viability (HCC-78; first compound 0.006325 µM) was 0.457. For the same molecule, the relative viability (HCC-78; first compound 0.02 µM) was 0.4, the relative viability (NCI-H522; first compound 0.0002 µM) was 1.11 and the relative viability (NCI-H522; first compound 0.000632 µM) was 0.795. The relative viability (NCI-H522; first compound 0.002 µM) was 0.758, the relative viability (NCI-H522; first compound 0.006325 µM) was 0.565 and the relative viability (NCI-H522; first compound 0.02 µM) was 0.311. It also gave a relative viability (NCI-H2009; first compound 0.0002 µM) of 0.135, a relative viability (NCI-H2009; first compound 0.000632 µM) of 0.234 and a relative viability (NCI-H2009; first compound 0.002 µM) of 0.192. The relative viability (NCI-H2009; first compound 0.006325 µM) was 0.202, the relative viability (NCI-H2009; first compound 0.02 µM) was 0.127 and the relative viability (NCI-H661; first compound 0.0002 µM) was 0.42. For the same molecule, the relative viability (NCI-H661; first compound 0.000632 µM) was 0.448, the relative viability (NCI-H661; first compound 0.002 µM) was 0.472 and the relative viability (NCI-H661; first compound 0.006325 µM) was 0.377. The relative viability (NCI-H661; first compound 0.02 µM) was 0.359, the relative viability (NCI-H2342; first compound 0.0002 µM) was 0.683 and the relative viability (NCI-H2342; first compound 0.000632 µM) was 0.558. The relative viability (NCI-H2342; first compound 0.002 µM) was 0.486, the relative viability (NCI-H2342; first compound 0.006325 µM) was 0.388 and the relative viability (NCI-H2342; first compound 0.02 µM) was 0.394. The relative viability (NCI-H1648; first compound 0.0002 µM) was 0.265, the relative viability (NCI-H1648; first compound 0.000632 µM) was 0.26 and the relative viability (NCI-H1648; first compound 0.002 µM) was 0.271. It also gave a relative viability (NCI-H1648; first compound 0.006325 µM) of 0.249, a relative viability (NCI-H1648; first compound 0.02 µM) of 0.247 and a relative viability (NCI-H358; first compound 0.0002 µM) of 0.16. It also gave a relative viability (NCI-H358; first compound 0.000632 µM) of 0.173, a relative viability (NCI-H358; first compound 0.002 µM) of 0.142 and a relative viability (NCI-H358; first compound 0.006325 µM) of 0.126. It also gave a relative viability (NCI-H358; first compound 0.02 µM) of 0.111.
`COc1cc2nccc(Oc3ccc(NC(=O)Nc4cc(C)on4)c(Cl)c3)c2cc1OC` [Tivozanib] + Nc1nc2[nH]cc(CCc3ccc(C(=O)N[C@@H](CCC(=O)O)C(=O)O)cc3)c2c(=O)[nH]1 [Pemetrexed] (partner 0.2 µM) showed a relative viability (NCI-H460; first compound 0.005 µM) of 0.0664, a relative viability (NCI-H460; first compound 0.01581 µM) of 0.0619 and a relative viability (NCI-H460; first compound 0.05 µM) of 0.0637. It also gave a relative viability (NCI-H460; first compound 0.1581 µM) of 0.063, a relative viability (NCI-H460; first compound 0.5 µM) of 0.0689 and a relative viability (HCC-78; first compound 0.005 µM) of 0.925. It also gave a relative viability (HCC-78; first compound 0.01581 µM) of 0.924, a relative viability (HCC-78; first compound 0.05 µM) of 0.816 and a relative viability (HCC-78; first compound 0.1581 µM) of 0.885. For the same molecule, the relative viability (HCC-78; first compound 0.5 µM) was 0.913, the relative viability (NCI-H522; first compound 0.005 µM) was 1.03 and the relative viability (NCI-H522; first compound 0.01581 µM) was 1.1. The relative viability (NCI-H522; first compound 0.05 µM) was 1.04, the relative viability (NCI-H522; first compound 0.1581 µM) was 0.824 and the relative viability (NCI-H522; first compound 0.5 µM) was 1.15. It also gave a relative viability (NCI-H2009; first compound 0.005 µM) of 0.994, a relative viability (NCI-H2009; first compound 0.01581 µM) of 1.04 and a relative viability (NCI-H2009; first compound 0.05 µM) of 0.995. The relative viability (NCI-H2009; first compound 0.1581 µM) was 1.06, the relative viability (NCI-H2009; first compound 0.5 µM) was 0.933 and the relative viability (NCI-H661; first compound 0.005 µM) was 0.887. For the same molecule, the relative viability (NCI-H661; first compound 0.01581 µM) was 0.928, the relative viability (NCI-H661; first compound 0.05 µM) was 0.922 and the relative viability (NCI-H661; first compound 0.1581 µM) was 0.909. For the same molecule, the relative viability (NCI-H661; first compound 0.5 µM) was 0.854, the relative viability (NCI-H2342; first compound 0.005 µM) was 0.753 and the relative viability (NCI-H2342; first compound 0.01581 µM) was 0.754. For the same molecule, the relative viability (NCI-H2342; first compound 0.05 µM) was 0.802, the relative viability (NCI-H2342; first compound 0.5 µM) was 0.757 and the relative viability (NCI-H1648; first compound 0.005 µM) was 0.723. For the same molecule, the relative viability (NCI-H1648; first compound 0.01581 µM) was 0.704, the relative viability (NCI-H1648; first compound 0.05 µM) was 0.778 and the relative viability (NCI-H1648; first compound 0.1581 µM) was 0.652. For the same molecule, the relative viability (NCI-H1648; first compound 0.5 µM) was 0.546, the relative viability (NCI-H358; first compound 0.005 µM) was 0.181 and the relative viability (NCI-H358; first compound 0.01581 µM) was 0.18. The relative viability (NCI-H358; first compound 0.05 µM) was 0.161, the relative viability (NCI-H358; first compound 0.1581 µM) was 0.175 and the relative viability (NCI-H358; first compound 0.5 µM) was 0.176.
